Assay: Neutralization of odoriferous acid by GC-FID
Assay type: physicochemical
Description: Hexamine, which is weakly basic in nature, was incubated with two commonly known odoriferous acids, i.e., 3-hydroxy-3-methyl-hexanoic acid (HMHA) and hexanoic acid, and the potential neutralization effect was studied by using a Gas Chromatograph with a Flame Ionization Detector (GC-FID). The chromatograms showing the neutralization of 3-hydroxy-3-methyl-hexanoic acid (HMHA) by sodium hydroxide and hexamine; and the neutralization of hexanoic acid by hexamine are shown in FIGS. 1 and 2, respectively.

C1N2CN3CN1CN(C2)C3 [hexamine]
neutralization of odoriferous acid (FIG. 1): capable of neutralizing the tested odoriferous acids
neutralization of odoriferous acid (FIG. 2): capable of neutralizing the tested odoriferous acids

— patent US10596092B2, “Deodorant composition and a method for preparing thereof” (priority 2017, dated 2020)
